Data from US20170165237A1 (DRUGGABILITY TECHNOLOGIES IP HOLDCO LIMITED, priority 2014, published 2017).

Tests used:
[1] = in vitro; details: PAMPA, pH 7
Experimental: The receiver compartment was phosphate buffered saline (pH 7.0) supplemented with 1% sodium dodecyl sulfate. The assay was performed at room temperature; incubation time was 1-24 hours. The concentration in the receiver compartment was determined by UV-VIS spectrophotometry (Thermo Scientific Genesys S10).

[2] = target: P-gp (Homo sapiens, UniProt P08183); details: cited from earlier work
[3] = target: CYP3A4 (Homo sapiens, UniProt P08684); details: cited from earlier work
[4] = in vivo; cited from earlier work
[5] = topical, psoriasis; cited from earlier work
[6] = subconjunctival, 5 subjects; cited from earlier work
[7] = test system: angiogenesis pathways; details: topical 1%; cited from earlier work
[8] = in vivo; cited from earlier work; remark: listed apart in the source
[9] = cited from earlier work
[10] = cited from earlier work; remark: listed apart in the source
[11] = test system: human plasma proteins; details: cited from earlier work
[12] = target: human plasma proteins (Homo sapiens, UniProt P02768); details: serum albumin; cited from earlier work
Sequence of human plasma proteins (Homo sapiens, UniProt P02768) (P02768 25-609): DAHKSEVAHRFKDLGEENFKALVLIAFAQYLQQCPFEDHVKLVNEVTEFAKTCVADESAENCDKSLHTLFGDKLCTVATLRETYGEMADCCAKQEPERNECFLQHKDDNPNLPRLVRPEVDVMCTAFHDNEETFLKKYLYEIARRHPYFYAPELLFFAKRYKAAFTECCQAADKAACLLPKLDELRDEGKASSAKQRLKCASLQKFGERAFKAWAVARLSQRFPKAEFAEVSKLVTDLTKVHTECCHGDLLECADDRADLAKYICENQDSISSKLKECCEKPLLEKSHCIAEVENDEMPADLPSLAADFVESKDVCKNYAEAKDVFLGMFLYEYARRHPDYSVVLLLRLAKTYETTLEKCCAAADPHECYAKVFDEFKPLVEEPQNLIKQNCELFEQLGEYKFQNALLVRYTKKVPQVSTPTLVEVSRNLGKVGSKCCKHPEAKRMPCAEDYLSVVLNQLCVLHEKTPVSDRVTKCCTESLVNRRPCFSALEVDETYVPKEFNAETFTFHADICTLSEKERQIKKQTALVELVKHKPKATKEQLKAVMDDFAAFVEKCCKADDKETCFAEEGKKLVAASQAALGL

[13] = single dose [14C] Sirolimus oral solution, healthy volunteers

Sequence of CYP3A4 (P08684 whole entry): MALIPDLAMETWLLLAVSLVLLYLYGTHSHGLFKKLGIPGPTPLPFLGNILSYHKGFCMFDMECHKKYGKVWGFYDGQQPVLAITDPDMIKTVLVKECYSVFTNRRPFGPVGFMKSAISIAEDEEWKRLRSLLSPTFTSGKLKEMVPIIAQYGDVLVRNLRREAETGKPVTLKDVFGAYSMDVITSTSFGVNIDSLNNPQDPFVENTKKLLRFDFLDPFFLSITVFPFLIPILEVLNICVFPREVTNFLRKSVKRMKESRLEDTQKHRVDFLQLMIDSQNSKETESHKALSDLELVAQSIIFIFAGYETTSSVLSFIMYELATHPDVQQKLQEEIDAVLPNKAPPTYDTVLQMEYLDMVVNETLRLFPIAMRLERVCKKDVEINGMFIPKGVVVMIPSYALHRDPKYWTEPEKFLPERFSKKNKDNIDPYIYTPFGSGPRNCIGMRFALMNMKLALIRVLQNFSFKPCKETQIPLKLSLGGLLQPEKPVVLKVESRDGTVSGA
Sequence of P-gp (P08183 whole entry): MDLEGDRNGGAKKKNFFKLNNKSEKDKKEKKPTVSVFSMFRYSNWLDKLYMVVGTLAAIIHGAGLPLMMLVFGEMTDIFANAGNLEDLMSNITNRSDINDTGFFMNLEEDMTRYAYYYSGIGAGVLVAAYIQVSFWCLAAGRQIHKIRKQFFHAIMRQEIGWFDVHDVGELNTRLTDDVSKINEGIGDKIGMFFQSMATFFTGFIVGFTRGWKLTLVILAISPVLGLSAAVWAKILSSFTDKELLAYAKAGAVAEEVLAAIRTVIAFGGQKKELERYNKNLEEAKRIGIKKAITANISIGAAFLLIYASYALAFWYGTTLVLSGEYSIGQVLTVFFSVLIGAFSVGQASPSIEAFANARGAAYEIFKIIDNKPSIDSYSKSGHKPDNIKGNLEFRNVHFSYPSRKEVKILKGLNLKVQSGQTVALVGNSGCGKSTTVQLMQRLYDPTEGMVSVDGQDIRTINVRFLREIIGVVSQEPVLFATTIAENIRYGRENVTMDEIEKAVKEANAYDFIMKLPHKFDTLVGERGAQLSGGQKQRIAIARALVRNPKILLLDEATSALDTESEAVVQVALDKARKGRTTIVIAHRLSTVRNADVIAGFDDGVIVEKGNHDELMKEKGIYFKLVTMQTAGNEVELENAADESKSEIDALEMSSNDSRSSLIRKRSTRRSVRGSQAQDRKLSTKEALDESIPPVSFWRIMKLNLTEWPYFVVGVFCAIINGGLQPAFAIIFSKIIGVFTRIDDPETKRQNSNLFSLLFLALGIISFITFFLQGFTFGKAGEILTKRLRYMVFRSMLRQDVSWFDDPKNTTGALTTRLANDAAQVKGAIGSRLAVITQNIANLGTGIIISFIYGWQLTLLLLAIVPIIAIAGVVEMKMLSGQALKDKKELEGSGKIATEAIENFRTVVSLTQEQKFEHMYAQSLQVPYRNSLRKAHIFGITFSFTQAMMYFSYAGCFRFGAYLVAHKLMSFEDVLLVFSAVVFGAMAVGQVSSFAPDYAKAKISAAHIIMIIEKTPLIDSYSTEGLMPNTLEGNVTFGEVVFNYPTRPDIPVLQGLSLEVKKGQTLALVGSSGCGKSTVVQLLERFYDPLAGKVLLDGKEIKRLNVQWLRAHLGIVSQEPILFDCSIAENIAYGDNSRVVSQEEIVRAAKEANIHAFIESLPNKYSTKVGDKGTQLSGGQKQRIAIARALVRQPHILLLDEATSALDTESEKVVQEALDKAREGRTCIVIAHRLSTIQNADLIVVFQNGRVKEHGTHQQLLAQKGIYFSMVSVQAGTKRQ

- Papp [1]: < 1 ×10⁻⁶ cm/s
SMILES: CO[C@H]1C[C@@H]2CC[C@@H](C)[C@@](O)(O2)C(=O)C(=O)N2CCCC[C@H]2C(=O)O[C@H]([C@H](C)C[C@@H]2CC[C@@H](O)[C@H](OC)C2)CC(=O)[C@H](C)/C=C(\C)[C@@H](O)[C@@H](OC)C(=O)[C@H](C)C[C@H](C)/C=C/C=C/C=C/1C [Sirolimus, (3 S,6R,7E,9R,10R, 12R, 14S, 15E, 17E, 19E,21 S,23 S,26R,27R,34aS)9,10,12,13,14,21,22,23,24, 25,26,27,32,33,34, 34a-hexadecahydro-9,27-dihydroxy-3-[(1R)-2[(1 S,3R,4R)-4-hydroxy-3-methoxycyclohexyl]-1-methylethyl]-10,21-dimethoxy6,8,12,14,20,26-hexamethyl-23,27-epoxy-3H-pyrido[2,1-c][1,4]oxaazacyclohentriacontine1,5,11,28,29 (4H,6H,31H)-pentone]
- substrate for P-gp [2]: substrate
- substrate for CYP3A4 [3]: substrate
- immune-mediated events in autoimmune disease models [4]: suppresses
- clinical score [5]: significant reduction
- plaque thickness and erythema [5]: did not show significant improvement
- tolerability [6]: well tolerated
- angiogenesis pathways; regeneration and revascularization of photocoagulated blood vessels [7]: can suppress
- allograft survival [8]: prolongs
- increase of mean total exposure (AUC) by high-fat meal compared with fasting ([9]; healthy subjects, high-fat meal (861.8 kcal, 54.9% kcal from fat)): 23 to 35%
- mean±SD terminal elimination half-life (t1/2) ([9]; multiple dosing, stable renal transplant patients): about 62±16 hours
- contribution to immunosuppressive activity in human whole blood ([9]; parent vs metabolites, human whole blood): more than 90%
- radioactivity excreted in urine [9, 13]: 2.2%
- radioactivity recovered from the feces [9, 13]: 91%
- systemic absorption after topical application ([10]; detection >1.0 ng/mL): No detectable systemic absorption
- effect on facial angiofibromas ([10]; topical): causes regression
- bound to human plasma proteins [11]: approximately 92%
- bound mainly to serum albumin [12]: 97%
